Source: the supplement of paper PMC4862054

How the values were obtained:
Assay in all cases: normalised response (% of control), CellTiter-Glo; higher = more viable cells (100 = DMSO, 0 = benzethonium chloride kill control)
Settings in all cases: incubation time: 72 h
[1] = test system: BT-474
How it was run: (§1)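 Normalised signals at single concentrations make up the values. They come from breast cancer cell lines seeded (20 µl suspension) into 384-well plates with compound at 5 concentrations in 10-fold steps over a compound-specific 10,000-fold range, incubated 72 h, and read for CellTox Green fluorescence then CellTiter-Glo luminescence. Each plate was normalised to 0.1 % DMSO (100) and a positive kill control (0).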

[2] = test system: DU-4475
How it was run: as §1

[3] = test system: HCC1937
How it was run: as §1

[4] = test system: HDQ-P1
How it was run: as §1

[5] = test system: MCF-10A
How it was run: as §1

[6] = test system: MDA-MB-231
How it was run: as §1

[7] = test system: MFM-223
How it was run: as §1

[8] = test system: BT-474; remark: listed apart in the source
Procedure: (§2)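 DSRT, 72 h incubation, CellTox Green / CellTiter-Glo readout. Signal is normalised to DMSO and benzethonium chloride controls. Value is the normalised response at the highest dose.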

[9] = test system: BT-549
Procedure: as §2

[10] = test system: CAL-120
Procedure: as §2

[11] = test system: CAL-148
Procedure: as §2

[12] = test system: CAL-51
Procedure: as §2

[13] = test system: CAL-85-1
Procedure: as §2

[14] = test system: DU-4475; remark: listed apart in the source
Procedure: as §2

[15] = test system: HCC1143
Procedure: as §2

[16] = test system: HCC1599
Procedure: as §2

[17] = test system: HCC1937; remark: listed apart in the source
Procedure: as §2

[18] = test system: HDQ-P1; remark: listed apart in the source
Procedure: as §2

[19] = test system: Hs578T
Procedure: as §2

[20] = test system: MCF-10A; remark: listed apart in the source
Procedure: as §2

[21] = test system: MDA-MB-231; remark: listed apart in the source
Procedure: as §2

[22] = test system: MDA-MB-436
Procedure: as §2

[23] = test system: MDA-MB-453
Procedure: as §2

[24] = test system: MDA-MB-468
Procedure: as §2

[25] = test system: MFM-223; remark: listed apart in the source
Procedure: as §2

[26] = test system: SK-BR-3
Procedure: as §2

SMILES: COc1ncc(-c2ccc3nccc(-c4ccnnc4)c3c2)cc1NS(=O)(=O)c1ccc(F)cc1F (100 nM)
- normalised response [1]: 52.7%
- normalised response [2]: 78.1%
- normalised response [3]: 54.6%
- normalised response [4]: 25.5%
- normalised response [5]: 31.8%
- normalised response [6]: 55%
- normalised response [7]: 37%

SMILES: COc1ncc(-c2ccc3nccc(-c4ccnnc4)c3c2)cc1NS(=O)(=O)c1ccc(F)cc1F (1000 nM)
- normalised response [8]: 43%
- normalised response [9]: 13.9%
- normalised response [10]: 29.9%
- normalised response [11]: 6.28%
- normalised response [12]: 6.49%
- normalised response [13]: 21%
- normalised response [14]: 9.21%
- normalised response [15]: 23.6%
- normalised response [16]: 56.4%
- normalised response [17]: 24%
- normalised response [18]: 12.8%
- normalised response [19]: 16.1%
- normalised response [20]: 18.8%
- normalised response [21]: 33.7%
- normalised response [22]: 39.4%
- normalised response [23]: 7.5%
- normalised response [24]: 12.7%
- normalised response [25]: 33.4%
- normalised response [26]: 19.1%

SMILES: C[C@@]1(C(=O)Nc2ccc(F)nc2)CCCN1c1nc(Nc2cc(C3CC3)n[nH]2)c2cccn2n1 (1000 nM)
- normalised response [1]: 62.8%
- normalised response [2]: 80.4%
- normalised response [3]: 86.9%
- normalised response [4]: 46.7%
- normalised response [5]: 20.4%
- normalised response [6]: 62.4%
- normalised response [7]: 58.1%

SMILES: C[C@@]1(C(=O)Nc2ccc(F)nc2)CCCN1c1nc(Nc2cc(C3CC3)n[nH]2)c2cccn2n1 (10000 nM)
- normalised response [8]: 29.8%
- normalised response [9]: 12.7%
- normalised response [10]: 13.4%
- normalised response [11]: 56.7%
- normalised response [12]: 19.9%
- normalised response [13]: 38.9%
- normalised response [14]: 31.4%
- normalised response [15]: 36.1%
- normalised response [16]: 54.9%
- normalised response [17]: 62.6%
- normalised response [18]: 8.28%
- normalised response [19]: 44.7%
- normalised response [20]: 7.53%
- normalised response [21]: 26.1%
- normalised response [22]: 40.6%
- normalised response [23]: 127%
- normalised response [24]: 20.4%
- normalised response [25]: 25.2%
- normalised response [26]: 57.4%

SMILES: COc1c(C)cnc(Cn2cnc3c(Cl)nc(N)nc32)c1C [BIIB021] (1000 nM)
- normalised response [1]: 31.1%
- normalised response [2]: 0.4%
- normalised response [3]: 24.7%
- normalised response [4]: 29.5%
- normalised response [5]: 15.4%
- normalised response [6]: 25.5%
- normalised response [7]: 40.2%

SMILES: COc1c(C)cnc(Cn2cnc3c(Cl)nc(N)nc32)c1C [BIIB021] (10000 nM)
- normalised response [8]: 27.5%
- normalised response [9]: 38.2%
- normalised response [10]: 45.4%
- normalised response [11]: 25.1%
- normalised response [12]: 11.4%
- normalised response [13]: 18.6%
- normalised response [14]: 0.28%
- normalised response [15]: 31.5%
- normalised response [16]: 47.4%
- normalised response [17]: 29.4%
- normalised response [18]: 20.3%
- normalised response [19]: 33.7%
- normalised response [20]: 13.4%
- normalised response [21]: 16.7%
- normalised response [22]: 41.7%
- normalised response [23]: 27.5%
- normalised response [24]: 23.8%
- normalised response [25]: 35.1%
- normalised response [26]: 34.3%

SMILES: CC(C)C[C@H](NC(=O)[C@H](Cc1ccccc1)NC(=O)c1cnccn1)B(O)O [Bortezomib] (100 nM)
- normalised response [1]: 1.56%
- normalised response [2]: 13%
- normalised response [3]: 59%
- normalised response [4]: 3.18%
- normalised response [5]: 68.6%
- normalised response [6]: 0.34%
- normalised response [7]: 3.48%

SMILES: CC(C)C[C@H](NC(=O)[C@H](Cc1ccccc1)NC(=O)c1cnccn1)B(O)O [Bortezomib] (1000 nM)
- normalised response [8]: 1.31%
- normalised response [9]: 2.23%
- normalised response [10]: 7.39%
- normalised response [11]: 0.43%
- normalised response [12]: 2.86%
- normalised response [13]: 0.44%
- normalised response [14]: 6.46%
- normalised response [15]: 5.75%
- normalised response [16]: 21.3%
- normalised response [17]: 2.46%
- normalised response [18]: 0.65%
- normalised response [19]: 0.04%
- normalised response [20]: 3.63%
- normalised response [21]: 0.08%
- normalised response [22]: 1.47%
- normalised response [23]: 11.5%
- normalised response [24]: 0.97%
- normalised response [25]: 2.91%
- normalised response [26]: 1.8%

SMILES: CS(=O)(=O)OCCCCOS(C)(=O)=O [Busulfan] (10000 nM)
- normalised response [1]: 93.7%
- normalised response [2]: 107%
- normalised response [3]: 99.6%
- normalised response [4]: 98.3%
- normalised response [5]: 98.9%
- normalised response [6]: 102%
- normalised response [7]: 107%

SMILES: CS(=O)(=O)OCCCCOS(C)(=O)=O [Busulfan] (100000 nM)
- normalised response [8]: 89.9%
- normalised response [9]: 107%
- normalised response [10]: 101%
- normalised response [11]: 106%
- normalised response [12]: 110%
- normalised response [13]: 104%
- normalised response [14]: 101%
- normalised response [15]: 104%
- normalised response [16]: 96%
- normalised response [17]: 98.8%
- normalised response [18]: 98.4%
- normalised response [19]: 102%
- normalised response [20]: 102%
- normalised response [21]: 101%
- normalised response [22]: 104%
- normalised response [23]: 102%
- normalised response [24]: 108%
- normalised response [25]: 107%
- normalised response [26]: 111%
